From US11840686B2, “Modulation of prekallikrein (PKK) expression” (Ionis Pharmaceuticals, Inc., priority 2013, dated 2023) come the findings set out here.

Strand notation (5' to 3'): a small letter for the sugar, then the base; units joined by * are phosphorothioate-linked, units joined directly phosphodiester-linked; [ ] holds rarer units or linkages, { } end groups; capitals alone tell only the bases. e = 2'-O-(2-methoxyethyl) (MOE); [5mC] = 5-methylcytosine; d = 2'-deoxy (DNA)

The subject of the first data set is human PKK mRNA. In words: Antisense inhibition of human PKK mRNA in HepaRG cells, 5,000 nM (Example 2). Type of data set: cell-based. The note with it: HepaRG cells, electroporation, 5,000 nM antisense oligonucleotide, approx. 24 hours, primer probe set RTS3454, relative to untreated control cells; Table 11. The gist of the method:
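Chimeric MOE gapmers with full phosphorothioate backbones were tested once at 5,000 nM in electroporated HepaRG cells. After about 24 hours, quantitative PCR measured PKK mRNA relative to untreated control cells.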
For the substance “547516 (antisense eG*eA*eT*eG*e[5mC]*dA*dA*dA*dG*dA*dA*dG*dA*dT*dG*e[5mC]*e[5mC]*eA*e[5mC]*eT) [compound 547516]”, the % inhibition (usually the relative decrease from the control value, in per cent) is recorded as 48%.
Consider “547517 (antisense eT*eA*eG*eG*eA*dT*dG*d[5mC]*dA*dA*dA*dG*dA*dA*dG*eA*eT*eG*e[5mC]*e[5mC]) [compound 547517]”, for which the “% inhibition” value is given as 57%.
The same measure, in the same setting: with “547518 (antisense eT*e[5mC]*e[5mC]*eT*eT*dA*dG*dG*dA*dT*dG*d[5mC]*dA*dA*dA*eG*eA*eA*eG*eA) [compound 547518]” the figure was 51%; with “547519 (antisense e[5mC]*e[5mC]*eA*eG*eA*d[5mC]*dA*dT*dT*dG*dT*d[5mC]*d[5mC]*dT*d[5mC]*eA*eG*e[5mC]*eA*eG) [compound 547519]”, 76%; with “547521 (antisense e[5mC]*eT*eT*e[5mC]*eA*dG*d[5mC]*d[5mC]*dA*dG*dA*d[5mC]*dA*dT*dT*eG*eT*e[5mC]*e[5mC]*eT) [compound 547521]”, 58%.
Take “547522 (antisense eG*eA*eA*eA*eG*d[5mC]*dG*dG*dG*d[5mC]*dT*dT*d[5mC]*dA*dG*e[5mC]*e[5mC]*eA*eG*eA) [compound 547522]”: the “% inhibition” value is 73%.
Take “547523 (antisense eT*eT*eG*eT*e[5mC]*dA*dG*d[5mC]*d[5mC]*d[5mC]*d[5mC]*dT*dG*dG*dT*eT*eA*e[5mC]*eG*eG) [compound 547523]”: the “% inhibition” value worked out at 69%.
On to “547524 (antisense e[5mC]*eA*eT*eT*eG*dT*d[5mC]*dA*dG*d[5mC]*d[5mC]*d[5mC]*d[5mC]*dT*dG*eG*eT*eT*eA*e[5mC]) [compound 547524]”, for which the “% inhibition” value is listed as 58%.
Regarding “547525 (antisense e[5mC]*e[5mC]*eT*e[5mC]*eG*d[5mC]*dA*dT*dT*dG*dT*d[5mC]*dA*dG*d[5mC]*e[5mC]*e[5mC]*e[5mC]*eT*eG) [compound 547525]”, the “% inhibition” value is on record as 78%.
With “547526 (antisense eG*e[5mC]*eG*eA*e[5mC]*d[5mC]*dT*d[5mC]*dG*d[5mC]*dA*dT*dT*dG*dT*e[5mC]*eA*eG*e[5mC]*e[5mC]) [compound 547526]”, the “% inhibition” value was 59%.
On to “547527 (antisense e[5mC]*eT*e[5mC]*eA*eG*dT*dT*dG*d[5mC]*dG*dA*d[5mC]*d[5mC]*dT*d[5mC]*eG*e[5mC]*eA*eT*eT) [compound 547527]”, for which the “% inhibition” value is reported as 58%.
Still for that read-out and setting: the same measure for “547528 (antisense e[5mC]*eA*e[5mC]*eA*eG*dT*d[5mC]*dA*dT*dG*dG*dA*dG*dA*dT*e[5mC]*eT*e[5mC]*eA*eG) [compound 547528]”: 78%.

The same data set, now with this note: HepaRG cells, electroporation, 5,000 nM antisense oligonucleotide, approx. 24 hours, primer probe set RTS3454, relative to untreated control cells; Table 12.
Take “547529 (antisense eA*e[5mC]*eA*e[5mC]*eA*d[5mC]*dA*dG*dT*d[5mC]*dA*dT*dG*dG*dA*eG*eA*eT*e[5mC]*eT) [compound 547529]”: the “% inhibition” value came to 49%.
Same read-out and setting: with “547530 (antisense eA*e[5mC]*eA*eA*e[5mC]*dA*d[5mC]*dA*d[5mC]*dA*dG*dT*d[5mC]*dA*dT*eG*eG*eA*eG*eA) [compound 547530]” the figure was 63%; with “547531 (antisense eT*eT*eA*eT*eT*dT*d[5mC]*dA*d[5mC]*dA*dA*d[5mC]*dA*d[5mC]*dA*e[5mC]*eA*eG*eT*e[5mC]) [compound 547531]”, 69%; with “547532 (antisense e[5mC]*eT*eG*e[5mC]*e[5mC]*dA*dA*d[5mC]*dA*dG*dT*dT*dT*d[5mC]*dA*eA*e[5mC]*eT*eT*eT) [compound 547532]”, 65%.
Regarding “547533 (antisense eT*eT*eT*eT*eG*d[5mC]*dT*dT*dG*dG*d[5mC]*dT*dT*d[5mC]*dA*eA*eT*eA*eT*eT) [compound 547533]”, the “% inhibition” value was determined as 23%.
Regarding “547534 (antisense eA*eT*e[5mC]*eT*eG*dA*d[5mC]*dT*dA*dG*dT*dG*dA*dA*dT*eG*eG*e[5mC]*eT*eT) [compound 547534]”, the “% inhibition” value turned out to be 72%.
Same read-out and setting: the same measure for “547535 (antisense eA*eG*eA*e[5mC]*eA*dG*d[5mC]*d[5mC]*d[5mC]*dA*d[5mC]*d[5mC]*dA*dA*d[5mC]*eA*eA*eT*e[5mC]*eT) [compound 547535]”: 28%; for “547536 (antisense eT*eG*e[5mC]*eA*eT*dA*dG*dA*d[5mC]*d[5mC]*d[5mC]*d[5mC]*dA*dA*d[5mC]*eA*eG*eA*e[5mC]*eA) [compound 547536]”: 48%; for “547537 (antisense e[5mC]*e[5mC]*eT*eG*eT*dG*d[5mC]*dA*dT*dA*dG*dA*d[5mC]*d[5mC]*d[5mC]*e[5mC]*eA*eA*e[5mC]*eA) [compound 547537]”: 65%.
Same read-out and setting: the same measure for “547538 (antisense e[5mC]*e[5mC]*eA*eG*e[5mC]*dA*dG*dA*dA*dA*dT*d[5mC]*d[5mC]*dT*dG*eT*eG*e[5mC]*eA*eT) [compound 547538]”: 77%; for “547539 (antisense eA*eG*eA*eA*e[5mC]*dT*d[5mC]*d[5mC]*dA*dG*d[5mC]*dA*dG*dA*dA*eA*eT*e[5mC]*e[5mC]*eT) [compound 547539]”: 43%.
For “547540 (antisense eT*eT*eG*eT*eG*dT*dG*dG*d[5mC]*d[5mC]*d[5mC]*dT*d[5mC]*dT*dT*eA*eA*eG*eT*e[5mC]) [compound 547540]”, the “% inhibition” value turned out to be 44%.
Consider “547541 (antisense eT*eA*eT*eA*eG*dA*dT*dG*dT*dT*dT*dA*dT*dT*dG*eT*eA*eG*e[5mC]*e[5mC]) [compound 547541]”, for which the “% inhibition” value was determined as 36%.
Take “547542 (antisense eA*eT*eA*e[5mC]*eT*d[5mC]*dG*d[5mC]*d[5mC]*dT*dT*dT*dG*dT*dG*eA*e[5mC]*eT*e[5mC]*eG) [compound 547542]”: the “% inhibition” value amounted to 35%.
On the same count and under the same terms, the same measure for “547543 (antisense eT*eT*eT*eT*e[5mC]*d[5mC]*dA*dT*dG*d[5mC]*dA*dT*dA*d[5mC]*dT*e[5mC]*eG*e[5mC]*e[5mC]*eT) [compound 547543]”: 54%; for “547544 (antisense eT*e[5mC]*eG*e[5mC]*e[5mC]*dT*dT*dT*dG*dT*dG*dA*dT*dG*d[5mC]*eG*eA*eT*eT*eT) [compound 547544]”: 15%.
The same measure, in the same setting: the same measure for “547545 (antisense eA*eT*eA*e[5mC]*eT*d[5mC]*dG*d[5mC]*d[5mC]*dT*dT*dT*dG*dT*dG*eA*eT*eG*e[5mC]*eG) [compound 547545]”: 43%.
On the same count and under the same terms, the same measure for “547546 (antisense e[5mC]*eA*eT*eA*e[5mC]*dT*d[5mC]*dG*d[5mC]*d[5mC]*dT*dT*dT*dG*dT*eG*eA*eT*eG*e[5mC]) [compound 547546]”: 11%; for “547547 (antisense eG*e[5mC]*eA*eT*eA*d[5mC]*dT*d[5mC]*dG*d[5mC]*d[5mC]*dT*dT*dT*dG*eT*eG*eA*eT*eG) [compound 547547]”: 42%; for “547548 (antisense eT*eG*e[5mC]*eA*eT*dA*d[5mC]*dT*d[5mC]*dG*d[5mC]*d[5mC]*dT*dT*dT*eG*eT*eG*eA*eT) [compound 547548]”: 61%.
Take “547549 (antisense e[5mC]*e[5mC]*e[5mC]*eA*eT*dG*d[5mC]*dA*dT*dA*d[5mC]*dT*d[5mC]*dG*d[5mC]*e[5mC]*eT*eT*eT*eG) [compound 547549]”: the “% inhibition” value came to 36%.
